Experimental data as given in US8642553B2, “Acacia macrostachya seed extract and compositions containing same” (Laboratoires Expanscience, priority 2009, dated 2014).

What was measured:
[1] = system: Normal human keratinocytes; assay: Screening of expression of junction protein messengers in keratinocytes (PCR array); assay type: cell-based; conditions: 1.5 mM, 24 hours, Control: 100%
Experimental: The activity of Acacia hydrolysate was studied by quantitative RT-PCR on the level of expression of 16 genes mainly coding for tight junction proteins as well as for the major proteins of the communicating junctions of the epidermis. […] The expression of the markers was evaluated by quantitative RT-PCR (PCR array). The variation in the expression of the markers studied compared to the control was expressed in percentage (Control: 100%). The levels of expression are classified in the following manner: […]

Normal human fibroblasts = assay: Gene expression of markers of the dermal matrix and antioxidant defences by fibroblasts (quantitative RT-PCR in real time); assay type: cell-based; conditions: 5 ng/ml, 24h
Experimental: The effect of Acacia hydrolysate on the modulation of the extra-cellular matrix of the dermis and on the stimulation of the anti-oxidant defences was evaluated on a dermal fibroblasts model in which the gene expression of elastin, MMP1 and heme oxygenase 1 was studied by quantitative RT-PCR in real time.
Normal human fibroblasts were treated for 24h with 0.01% and 0.05% Acacia hydrolysate (w/v) or with the reference TGFβ1 at 5 ng/ml. The gene expression of the selected markers was analysed by quantitative RT-PCR in real time.
The results were analysed statistically by a one-way variance analysis (ANOVA) followed by a Dunnett test: • ns p>0.05: not significant • *0.01<p<0.05: significant • **0.001<p<0.01: very significant • ***p<0.001: highly significant
The level of gene expression was expressed in relative quantity (RQ) and the effect of the treatment in relation to the control cells in percentage increase or inhibition.

| Compound | Cingulin messenger expression [1] | Claudin 1 messenger expression [1] | Gap junction protein (β2 messenger expression) [1] | Occludin messenger expression [1] | ELASTIN gene expression, percentage increase or inhibition vs control cells (Normal human fibroblasts) | MMP1 gene expression, percentage increase or inhibition vs control cells (Normal human fibroblasts) | ELASTIN gene expression, relative quantity (RQ) (Normal human fibroblasts; control cells 1.00) | MMP1 gene expression, relative quantity (RQ) (Normal human fibroblasts; control cells 1.00) |
| --- | --- | --- | --- | --- | --- | --- | --- | --- |
| [Ca+2].[Cl-].[Cl-] [CaCl2, calcium chloride] | 337 % Control | 216 % Control | 43 % Control | 445 % Control |  |  |  |  |
| TGFβ1: reference TGFβ1 at 5 ng/ml |  |  |  |  | +559% | −88% | 6.59 | 0.12 |
